In patent US9776987B2, “Amide derivatives for GPR119 agonist” (CHONG KUN DANG PHARMACEUTICAL CORP., priority 2013, dated 2017):
≈ marks a conversion by molar mass, not a printed value. Like-named read-outs stand apart in the source and are kept apart here.

Columns and labels:
[1] = Solubility test of GPR 119 agonist compounds (Nephelostar); type: physicochemical; conditions: aqueous with cosolvent or surfactant or cyclodextrin, kinetic from dmso stock
Protocol: 1. Method of Solubility Test
Each test compounds were dissolved in 5% DMSO aqueous solution as a solvent at several concentrations. When a laser was irradiated to the solution, the particles, which are not dissolved in the solvent, scatter the light. The level of the scattered light is dependent to the number of the particles, so the solubility of the test compound in the solution can be determined using the relationship. As the test equipment, Nephelostar was used.

[2] = tested on: Glucagon-Like Peptide-1 (GLP-1) secretion; assay: Secretion capacity test of glucagon-like peptide-1 (GLP-1); type: in vivo, mouse; conditions: normal mice, oral, AUC of plasma GLP-1 level, vehicle (water) 100%
Protocol: 3. Secretion Capacity Test of Glucagon-Like Peptide-1 (GLP-1)
Male C57/6J Jms mice of 6-7 weeks of age were fasted for 16 hours before the start of the test of secretion capacity test of GLP-1. The experimental animal groups consist of: a vehicle group (100% DI water); and test groups administered with each compounds (10 mg/kg). Blood samples were taken from the orbital vein of the test animals. Plasma GLP-1 level was determined using a GLP-1 ELISA kit (Total GLP-1 ELISA, ALPCO). With the base of 30 minutes before the compound administration, each blood samples were taken at 30, 60, 120 and 210 minutes after the compound administration. 30% Glucose solution (3 g/kg/10 mL) was administered orally at 5 minutes before each blood-collecting. From the collected blood, only plasma was taken using a centrifuge (12000 rpm, 15 minutes), and stored at −80° C. before analysis. Plasma GLP-1 level vs. Time was graphicalized. Area under the curve (AUC) of plasma GLP-1 level was obtained using GraphPad Prism 4.0. All the results were expressed as mean±SD, and each test groups and the control group were compared using one-way ANOVA test (Dunnett's test, *p<0.05, **p<0.01, ***p<0.001) to adjudge the effects of each test groups.

Male C57/6J Jms mice = assay: Glucose tolerance test in normal mouse; type: in vivo
Protocol: 1. Method of Glucose Tolerance Test
Male C57/6J Jms mice of 6-7 weeks of age were fasted for 16 hours before the start of glucose tolerance test. […]
Before compound administration, that is, at 0 hour, whole blood glucose level was determined using a Glucometer (ACCU-CHEK, Roche). At 30 minutes after compound administration, whole blood glucose level was determined once again, and 20% glucose (2 g/kg/10 mL) was administered orally. Whole blood glucose level was determined at 20, 40, 60, 80, and 120 minutes after 20% glucose administration. Whole blood glucose level vs. Time was graphicalized. Area under the curve (AUC) of whole blood glucose level was obtained using GraphPad Prism 4.0. The effect of glucose tolerance was adjudged with the corrected area under the curve (cAUC), on which the base value of glucose area under the curve was excluded.

human GPR119 receptor = molecular target: T1, human GPR119 receptor (Homo sapiens, UniProt Q8TDV5); assay: Activity test for human GPR119 receptor (GeneBLAzer T-Rex GPR 119 CHO-K1 DA cells); type: cell-based; conditions: for EC50: human GPR119 receptor expressing CHO-K1 cells, 5 hours treatment, read-out: hGPR119 EC50; for activity for human GPR119 receptor (in words): judgement on the EC50 values of Table 11
T1 construct: host or cells: GeneBLAzer T-Rex GPR 119 CHO-K1 DA cells (CHO-K1)
T1 sequence (Q8TDV5 1-335): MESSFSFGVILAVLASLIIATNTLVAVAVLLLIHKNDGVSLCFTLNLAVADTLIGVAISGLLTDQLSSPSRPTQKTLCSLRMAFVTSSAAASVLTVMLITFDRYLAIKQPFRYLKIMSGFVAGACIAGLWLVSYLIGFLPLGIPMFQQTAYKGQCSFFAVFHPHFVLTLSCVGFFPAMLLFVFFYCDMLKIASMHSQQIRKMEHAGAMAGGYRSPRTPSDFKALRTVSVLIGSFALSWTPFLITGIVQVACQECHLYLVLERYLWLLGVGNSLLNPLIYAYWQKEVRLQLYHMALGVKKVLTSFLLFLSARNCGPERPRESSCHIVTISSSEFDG
Protocol: 1. Human GPR119 Receptor Cell
As a human GPR119 receptor expression cell for this test, the cell line “GeneBLAzer™ T-Rex GPR 119 CHO-K1 DA cells” that is commercially available from Invitrogen, was used. The cell was incubated in the DMEM media containing 1% dialyzed fetal bovine serum etc. The cell incubator was kept at constant temperature and constant humidity of 37° C., 5% CO2.
2. Activity Test for Human GPR119 Receptor
The human GPR119 receptor expressing cell was used to this test. Each of test compounds was added to be final concentrations of 0.1, 1, 10 μM in 96 well and tested in duplicate. A fixed amount of cell was added to each well of 96 well separately, and then treated with the test compound for 5 hours. After treatment of color development agent for 2 hours, the fluorescence value was determined with plate reader. To the luminous wavelength of control well, which was not treated with the sample, but in which only a vehicle […] was contained, the ratio of the luminous wavelength of test well, which was treated with the sample, was calculated, and then converted to obtain EC50 value.
3. Statistical Processing
All the results were expressed as mean±SD, and each test groups and the control group were compared using student's t-test to adjudge the effects of each test groups.

[3] = pH 2, 5% DMSO aqueous solution, read-out: Solubility pH 2
[4] = pH 4, 5% DMSO aqueous solution, read-out: Solubility pH 4
[5] = pH 6, 5% DMSO aqueous solution, read-out: Solubility pH 6
[6] = pH 8, 5% DMSO aqueous solution, read-out: Solubility pH 8
[7] = 10 mg/kg, whole blood glucose AUC after oral glucose 2 g/kg, 10 mg/kg
[8] = 10 mg/kg, whole blood glucose AUC after oral glucose 2 g/kg

Structure (SMILES)	solubility [1, 3] [µg/mL]	solubility [1, 4] [µg/mL]	solubility [1, 5] [µg/mL]	solubility [1, 6] [µg/mL]	GLP-1 secretion (%) at 10 mg/kg of dose [2] [%]	Decrease % of AUC at 2.5 mg/kg (Male C57/6J Jms mice; 2.5 mg/kg) [%]	Decrease % of AUC at 5 mg/kg (Male C57/6J Jms mice; 5 mg/kg) [%]	EC50 (human GPR119 receptor) [nM]	activity for human GPR119 receptor (in words) (human GPR119 receptor)	Decrease % of AUC at 10 mg/kg (Male C57/6J Jms mice; [7]) [%]	Decrease % of AUC at 10 mg/kg (Male C57/6J Jms mice; [8])
CCC(F)(CC)CN1CCC(COc2ccc(-c3ccc(C(=O)N4C[C@H](O)C[C@@]4(C)C(N)=O)c(F)c3)nc2)CC1 [Compound 1291, (2S,4R)-1-(4-(5-((1-(2-ethyl-2-fluorobutyl)piperidin-4-yl)methoxy)pyridin-2-yl)-2-fluorobenzoyl)-4-hydroxy-2-methylpyrrolidin-2-carboxamide]	> 279	> 279	> 279	166 (≈ 297 µM)	347	15.7	38.0	13	excellent activity		
NC(=O)[C@@H]1C[C@@H](O)CN1C(=O)c1ccc(-c2ccc(OCC3CCN(CC4(C(F)(F)F)CCC4)CC3)cc2)cc1 [Compound 1199, (2S,4R)-4-hydroxy-1-(4′-((1-((1-(trifluoromethyl)cyclobutyl)methyl)piperidin-4-yl)methoxy)biphenylcarbonyl)pyrrolidin-2-carboxamide]								12		31	
CC(C)(CN1CCC(COc2ccc(-c3ccc(C(=O)N4C[C@H](O)C[C@H]4C(N)=O)c(F)c3)cn2)CC1)C(F)(F)F [Compound 1208, (2S,4R)-1-(2-fluoro-4-(6-((1-(3,3,3-trifluoro-2,2-dimethylpropyl)piperidin-4-yl)methoxy)pyridin-3-yl)benzoyl)-4-hydroxypyrrolidin-2-carboxamide]								3	excellent activity	38	
CCC(F)(CC)CN1CCC(COc2ccc(-c3ccc(C(=O)N4C[C@H](O)C[C@H]4C(N)=O)c(F)c3)nc2)CC1 [Compound 1279, (2S,4R)-1-(4-(5-((1-(2-ethyl-2-fluorobutyl)piperidin-4-yl)methoxy)pyridin-2-yl)-2-fluorobenzoyl)-4-hydroxypyrrolidin-2-carboxamide]	> 272	> 272	> 272	133 (≈ 244 µM)	324	20.8	30.2	13	excellent activity		
CC(C)(CN1CCC(COc2ccc(-c3ccc(C(=O)N4C[C@H](O)C[C@H]4C(N)=O)c(F)c3)c(F)c2)CC1)C(F)(F)F [Compound 1240, (2S,4R)-1-(2′,3-difluoro-4′-((1-(3,3,3-trifluoro-2,2-dimethylpropyl)piperidin-4-yl)methoxy)biphenylcarbonyl)-4-hydroxypyrrolidin-2-carboxamide]								0.1		35	
CCc1cnc(N2CCC(c3nc(COc4ccc(-n5cnnn5)cc4)cs3)CC2)nc1 [MBX-2982, reference compound]	> 208	133 (≈ 297 µM)	61 (≈ 136 µM)	39 (≈ 86.9 µM)	114	9.5	18.5				20~30%
CC(C)c1noc(N2CCC(COc3ccc(-c4ccc(S(C)(=O)=O)cc4)nc3)CC2)n1 [GSK-1292263, reference compound]											10~20%
C[C@@]1(C(N)=O)C[C@@H](O)CN1C(=O)c1ccc(-c2ccc(OCC3CCN(CC4(C(F)(F)F)CCC4)CC3)cn2)cc1F [Compound 1290, (2S,4R)-1-(2-fluoro-4-(5-((1-((1-(trifluoromethyl)cyclobutyl)methyl)piperidin-4-yl)methoxy)pyridin-2-yl)benzoyl)-4-hydroxy-2-methylpyrrolidin-2-carboxamide]	> 296	> 296	> 296	102 (≈ 172 µM)				6	excellent activity		
CC(C)(CN1CCC(COc2ccc(-c3ccc(C(=O)N4C[C@H](O)C[C@H]4C(N)=O)cc3)nc2)CC1)C(F)(F)F [Compound 1322, (2S,4R)-4-hydroxy-1-(4-(5-((1-(3,3,3-trifluoro-2,2-dimethylpropyl)piperidin-4-yl)methoxy)pyridin-2-yl)benzoyl)pyrrolidin-2-carboxamide]	> 274	> 274	> 274	89 (≈ 162 µM)				6	excellent activity		
CC(C)(F)CN1CCC(COc2ccc(-c3ccc(C(=O)N4CCC[C@@]4(C)C(N)=O)c(F)c3)nc2)CC1 [Compound 1207, (S)-1-(2-fluoro-4-(5-((1-(2-fluoro-2-methylpropyl)piperidin-4-yl)methoxy)pyridin-2-yl)benzoyl)-2-methylpyrrolidin-2-carboxamide]	> 257	> 257	> 257	> 257	223	31.3	45.1	0.07	excellent activity		
CC(C)(CN1CCC(COc2ccc(-c3ccc(C(=O)N4C[C@H](O)C[C@@]4(C)C(N)=O)c(F)c3)nc2)CC1)C(F)(F)F [Compound 1294, (2S,4R)-1-(2-fluoro-4-(5-((1-(3,3,3-trifluoro-2,2-dimethylpropyl)piperidin-4-yl)methoxy)pyridin-2-yl)benzoyl)-4-hydroxy-2-methylpyrrolidin-2-carboxamide]	> 290	> 290	203 (≈ 350 µM)	52 (≈ 89.6 µM)				19	excellent activity		
